The text below walks through data of patent publication US20100317620A1, “N-PHENYLIMIDAZO[1,2-a]PYRIDINE-2-CARBOXAMIDE COMPOUNDS, PREPARATION AND THERAPEUTIC USE THEREOF” (sanofi-aventis, priority 2008, published 2010).

Where a name gives a salt, the structure may show the parent alone.

This assay deals with T1, murine Nurr1 receptor (Mus musculus, UniProt Q06219).
T1 construct: a cell line (N2A) endogenously expressing the murine Nurr1 receptor; host or cells: Neuro-2A (N2A) mouse neuroblastoma cells stably transfected with 8NBRE-luciferase
T1 sequence (Q06219 whole entry): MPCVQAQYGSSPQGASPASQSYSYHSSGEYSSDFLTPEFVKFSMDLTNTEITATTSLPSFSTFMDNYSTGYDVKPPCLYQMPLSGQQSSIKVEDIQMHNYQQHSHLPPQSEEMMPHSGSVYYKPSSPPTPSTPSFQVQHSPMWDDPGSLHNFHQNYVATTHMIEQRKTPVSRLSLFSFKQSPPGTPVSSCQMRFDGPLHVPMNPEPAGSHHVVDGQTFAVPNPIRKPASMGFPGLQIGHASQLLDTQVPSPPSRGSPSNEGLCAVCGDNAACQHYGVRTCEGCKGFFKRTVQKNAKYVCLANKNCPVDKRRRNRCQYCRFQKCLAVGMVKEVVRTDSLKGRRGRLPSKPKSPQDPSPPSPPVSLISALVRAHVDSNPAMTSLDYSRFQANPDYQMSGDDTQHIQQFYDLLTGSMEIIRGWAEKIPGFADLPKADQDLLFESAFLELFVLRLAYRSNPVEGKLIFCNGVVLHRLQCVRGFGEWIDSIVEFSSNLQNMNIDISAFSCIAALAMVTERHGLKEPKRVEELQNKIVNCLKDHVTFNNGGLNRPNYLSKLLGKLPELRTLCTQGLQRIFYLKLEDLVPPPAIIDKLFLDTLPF
The experiment in a line: In vitro activity on N2A cells (8NBRE-luciferase reporter). It is filed as cell-based. Conditions: N2A cell line endogenously expressing murine Nurr1, stably transfected with NBRE-luciferase; 24 hours incubation. Here is the method:
Evaluation of the In Vitro Activity on N2A Cells
The activity of the compounds according to the invention was evaluated on a cell line (N2A) endogenously expressing the murine Nurr1 receptor and stably transfected with the NOT binding response element (NBRE) coupled to the luciferase reporter gene. The EC50 values are between 0.01 and 1000 nM. The tests were performed according to the procedure described hereinbelow.
The cell line Neuro-2A is obtained from a standard commercial source (ATCC). The clone Neuro-2A was obtained from a spontaneous tumour originating from a strain of albino mice A by R. J Klebe et al. This line Neuro-2A is then stably transfected with 8NBRE-luciferase. The N2A-8NBRE cells are cultured to the point of confluence in 75 cm^2 culture flasks containing DMEM supplemented with 10% foetal calf serum, 4.5 g/L of glucose and 0.4 mg/ml of geneticin. After culturing for one week, the cells are recovered with 0.25% trypsin for 30 seconds and then resuspended in DMEM without phenol red, containing 4.5 g/L of glucose and 10% Hyclone defatted serum, and placed in white, transparent-based 96-well plates. The cells are deposited at a rate of 60 000 per well in 75 μL for 24 hours before adding the products. The products are applied in 25 μL and incubated for a further 24 hours. On the day of measurement, an equivalent volume (100 μL) of Steadylite is added to each well, and the wells are then left for 30 minutes to obtain complete lysis of the cells and maximum production of the signal. The plates are then measured in a microplate luminescence counter, after having been sealed with an adhesive film. The products are prepared in the form of a 10^−2 M stock solution, and then diluted in 100% of DMSO. Each concentration of product is prediluted in culture medium before incubation with the cells thus containing 0.625% final of DMSO.
On the technique in general: Reporter assays use an easily measured gene product as a stand-in for the process of interest.
The molecule “6-(Isopropylamino)-N-phenylimidazo[1,2-a]pyridine-2-carboxamide and its hydrochloride (1:1) [Example 2]” registered an EC50 of 1.6 nM. For `CSc1ccc2nc(C(=O)Nc3ccccc3)cn2c1` [Example 14, 6-(Methylthio)-N-phenylimidazo[1,2-a]pyridine-2-carboxamide and its hydrobromide (1:1)] the value was 2 nM; for `CS(=O)(=O)c1ccc2nc(C(=O)Nc3ccccc3)cn2c1` [Example 16, 6-(Methylsulfonyl)-N-phenylimidazo[1,2-a]pyridine-2-carboxamide and its hydrobromide (1:1)], 16 nM.

As usually defined, the EC50 is the midpoint of the concentration-response curve. High values mean a less potent agent, low ones a more potent agent.
